{"source": "patent US20260207765A1", "about": "“COVALENTLY-MODIFIED STEROID ACID-PEPTIDES HAVING ENHANCED STABILITY AND/OR BIOLOGICAL ACTIVITY” (priority 2022, published 2026)", "key": {"EL4 lymphoma cells": {"tested_on": "EL4 lymphoma cells", "assay": "Apoptosis analysis / kill curve by flow cytometry (Annexin-V, PI)", "assay_type": "cell-based, mouse", "description": "(§1) Apoptosis analysis was conducted by flow-cytometry. Briefly, target cells were first treated then washed. Treated cells were then re-suspended in Annexin-V staining buffer prior to staining with Annexin-V and propidium iodine (PI). Fifteen minutes later, cells were washed prior to analysis using BD FACS™ Diva on CANTOII™."}, "4T1 breast cancer cells": {"tested_on": "4T1 breast cancer cells", "assay": "Apoptosis analysis by flow cytometry", "assay_type": "cell-based", "conditions": "95 and 190 μM", "description": "as §1"}, "B16 melanoma cells": {"tested_on": "B16 melanoma cells", "assay": "Apoptosis analysis by flow cytometry", "assay_type": "cell-based", "conditions": "95 and 190 μM", "description": "as §1"}, "[1]": {"tested_on": "CT-26 colon carcinoma cells", "assay": "Apoptosis analysis by flow cytometry", "assay_type": "cell-based", "conditions": "95 and 190 μM", "description": "as §1"}, "[2]": {"tested_on": "E0771 breast cancer cells", "assay": "Apoptosis analysis by flow cytometry", "assay_type": "cell-based", "conditions": "95 and 190 μM", "description": "as §1"}, "[3]": {"tested_on": "JIMT-1 breast cancer cells", "assay": "Cytotoxicity of steroid acid-peptide conjugates in JIMT-1 cells", "assay_type": "cell-based", "conditions": "6.4 μM", "description": "as §1\n50 mg of CDCA-C-SV40 monomers (or other steroid acid-peptide monomers) were resuspended in 200-500 μL of DMSO. 10 eq of N,N-Diisopropylethylamine (DIPEA) was added to the mixture and incubated in a thermomixer at 37° C. with agitation (1000 rpm) overnight, enabling dimerization of the monomers via their N-terminal cysteine thiol groups to produce (CDCA-C-SV40)2 or other dimers. The samples were then analyzed by UPLC-MS to evaluate dimer formation efficiency. Cell toxicity was evaluated via a Cell Toxicity assay (PrestoBlue™)."}, "[4]": {"assay": "Stability testing (impurities by HPLC)", "assay_type": "physicochemical", "text": "GMP synthesis of the CDCA-C-SV40 monomer yielded a white powder and the results of initial stability testing is summarized below:\nAs shown above, two main impurities were detected by HPLC relating to the reactivity of the free thiol group of the CDCA-C-SV40 monomer, namely impurities resulting from oxidation of the thiol group (Impurity A) and the formation an intermolecular disulfide bond via the thiol groups of two CDCA-C-SV40 monomers, producing a (CDCA-C-SV40)2 dimer (Impurity B).\nTo attempt to improve stability, the synthesis protocol of CDCA-C-SV40 was modified to produce the conjugate directly in its dimerized form (Impurity B). […] At 25° C., total impurities rose only slightly from 1.6% at Day 0 to 2.1% after 3 months. At 40° C., total impurities rose from 1.6% at Day 0 to 1.7% after 5 days, 2.4% after 10 days, and to 3.7% after 30 days."}, "murine MSCs": {"tested_on": "murine MSCs", "assay": "Maximum tolerated dose on murine MSCs over 24 h", "assay_type": "cell-based", "conditions": "50 μM"}, "[5]": {"tested_on": "wild-type MSC and B3Z reporter system", "assay": "Antigen cross-presentation, wild-type MSC and B3Z reporter system", "conditions": "100 μM"}}, "note": "pEC50: −log10 of the molar value. Positions of bridges follow the written chain, without caps; N, C: chain ends. Residues, ends and D or L forms follow the SMILES beside them. Chains are numbered I, II in the order given. *: point of attachment. Chenodeoxycholyl = C[C@H](CCC(=O)*)[C@H]1CC[C@H]2[C@@H]3[C@H](O)C[C@@H]4C[C@H](O)CC[C@]4(C)[C@H]3CC[C@]12C"}
{"smiles": "CC(C)[C@H](NC(=O)[C@H](CCCCN)NC(=O)[C@H](CCCNC(=N)N)NC(=O)[C@H](CCCCN)NC(=O)[C@H](CCCCN)NC(=O)[C@H](CCCCN)NC(=O)[C@@H]1CCCN1C(=O)CNC(=O)[C@H](Cc1ccc(O)cc1)NC(=O)CNC(=O)[C@H](CSSC[C@H](NC(=O)CC[C@@H](C)[C@H]1CC[C@H]2[C@@H]3[C@H](O)C[C@@H]4C[C@H](O)CC[C@]4(C)[C@H]3CC[C@]12C)C(=O)NCC(=O)N[C@@H](Cc1ccc(O)cc1)C(=O)NCC(=O)N1CCC[C@H]1C(=O)N[C@@H](CCCCN)C(=O)N[C@@H](CCCCN)C(=O)N[C@@H](CCCCN)C(=O)N[C@@H](CCCNC(=N)N)C(=O)N[C@@H](CCCCN)C(=O)N[C@H](C(=O)NCC(=O)NCC(=O)O)C(C)C)NC(=O)CC[C@@H](C)[C@H]1CC[C@H]2[C@@H]3[C@H](O)C[C@@H]4C[C@H](O)CC[C@]4(C)[C@H]3CC[C@]12C)C(=O)NCC(=O)NCC(=O)O", "note": "[(CDCA-C-SV40)2] (I: Chenodeoxycholyl-CGYGPKKKRKVGG-OH / II: Chenodeoxycholyl-CGYGPKKKRKVGG-OH; disulfide I:1-II:1)", "values": [{"measurement": "cytotoxicity", "setting": "EL4 lymphoma cells; 95 and 190 μM", "value": "potent cytotoxicity"}, {"measurement": "pEC50", "setting": "EL4 lymphoma cells; EL4 lymphoma cells, flow cytometry, read-out: EC50 (cell death / kill curve)", "value": 5.49}, {"measurement": "cytotoxicity", "setting": "4T1 breast cancer cells", "value": "potent cytotoxicity"}, {"measurement": "cytotoxicity", "setting": "B16 melanoma cells", "value": "potent cytotoxicity"}, {"measurement": "cytotoxicity", "setting": "[1]", "value": "potent cytotoxicity"}, {"measurement": "cytotoxicity", "setting": "[2]", "value": "potent cytotoxicity"}, {"measurement": "cytotoxicity", "setting": "[3]", "value": "potent cytotoxicity"}, {"measurement": "stability of dimer compared with corresponding monomer", "setting": "[4]", "value": "markedly higher stability"}, {"measurement": "MSCs growth", "setting": "murine MSCs", "value": "diminished but was still present"}, {"measurement": "cell death of MSCs", "setting": "[5]", "value": "significant cell death"}]}
